Results as given in patent EP4786487A1, “PEPTIDE” (Peptidream Inc, priority 2023, dated 2025).
Where two headings read alike, the source gives them in different places. Starred links: 1 amine or outer side, 2 acyl side, 3 side chain; linkers in the order of their positions; H or OH if unused. Positions of bridges follow the written chain, without caps; N, C: chain ends. Non-standard residues stand in square brackets, D forms with d. Residues, ends and D or L forms follow the SMILES beside them. *: point of attachment. X10 = O=C([C@H](Cc1cn(Cc2ccccc2)c2ccccc12)N[*:1])[*:2]; Phe(3-OCH2COOH) = N[C@@H](Cc1cccc(OCC(=O)O)c1)C(=O)O; NMePhe(3-Ph) = CN[C@@H](Cc1cccc(-c2ccccc2)c1)C(=O)O; X2 = CC(=O)N1CCC(C[C@@H](C(=O)[*:2])N(C)[*:1])CC1; Phe(3-Ph) = N[C@@H](Cc1cccc(-c2ccccc2)c1)C(=O)O; Phe(4-COOH) = N[C@@H](Cc1ccc(C(=O)O)cc1)C(=O)O; NMePhe(4-Cl) = CN[C@@H](Cc1ccc(Cl)cc1)C(=O)O; Piperazinyl(4-CH2COOH) = O=C(O)CN1CCN(*)CC1; NMe2Nal = CN[C@@H](Cc1ccc2ccccc2c1)C(=O)O; NMeY = CN[C@@H](Cc1ccc(O)cc1)C(=O)O; X1 = CCCCCCC[C@H](N[*:1])C(=O)[*:2]; NMeF = CN[C@@H](Cc1ccccc1)C(=O)O; NMeE = CN[C@@H](CCC(=O)O)C(=O)O; NMeA = CN[C@@H](C)C(=O)O; Propyl(3-NH2) = NCCC*; Sar = CNCC(=O)O

What was measured:
GDF-11 = biological target: T1, GDF-11 (Homo sapiens, UniProt O95390); assay: HepG2 reporter gene assay, Evaluation Procedure (2): 2-concentrations assay, GDF-11 inhibition; assay type: cell-based; settings: for inhibition at 0.03 µM: HepG2, peptide 30nM, read-out: GDF11 Inhibition 30nM; for inhibition at 0.03 µM / inhibition at 0.1 µM: GDF-11 10 ng/mL; for inhibition at 0.1 µM: HepG2, peptide 100nM, read-out: GDF11 Inhibition 100nM; for inhibition: read-out: inhibition rate (GDF-11 inhibition assay)
T1 construct: purchased R&D systems 1958-GD-G8/CF
T1 sequence (O95390 299-407): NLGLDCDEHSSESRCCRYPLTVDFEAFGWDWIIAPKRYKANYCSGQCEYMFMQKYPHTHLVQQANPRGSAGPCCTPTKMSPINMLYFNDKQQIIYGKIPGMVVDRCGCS
Method in brief: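 HepG2 cells carrying the transfected pGL3(CAGA)12-luc reporter, a pGL3 vector with luciferase placed downstream of 12 CAGA repeats, were stimulated with GDF-11 at a final 10 ng/mL together with test peptide. Blank wells received no GDF-11 and no peptide. Plates were incubated 20 to 24 hours at 37°C with 5% CO2. Luminescence from One-Glo substrate was read to calculate percent inhibition.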

Myostatin = biological target: T2, Myostatin (Homo sapiens, UniProt O14793); assay: HepG2 reporter gene assay, Evaluation Procedure (2): 2-concentrations assay, myostatin inhibition; assay type: cell-based; settings: HepG2
T2 construct: active myostatin (also called mature myostatin) is a homodimer consisting of two C-terminal growth factor domains; purchased R&D systems 788-G8/CF
T2 sequence (O14793 267-375): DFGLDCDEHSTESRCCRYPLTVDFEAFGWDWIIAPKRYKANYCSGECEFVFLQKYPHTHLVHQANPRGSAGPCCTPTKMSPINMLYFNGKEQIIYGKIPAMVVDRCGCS
Method in brief: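 Myostatin inhibition was measured in a luciferase reporter assay using HepG2 cells transfected with a pGL3 vector containing 12 CAGA repeats upstream of luciferase. After 20 to 24 hours with 10 ng/mL myostatin, cells received One-Glo:PBS (1:1) at 100 µL/well, were shaken for 5 min, and 20 µL/well was moved to 384-well plates and read on an Envision 2104.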

[1] = peptide 30nM, Myostatin 10 ng/mL, read-out: Myostatin Inhibition 30nM
[2] = peptide 100nM, Myostatin 10 ng/mL, read-out: Myostatin Inhibition 100nM
[3] = HepG2, first GDF-11 column of Table 7-3/7-4, GDF-11 10 ng/mL, peptide at the lower of the 2 concentrations
[4] = HepG2, second GDF-11 column of Table 7-3/7-4, GDF-11 10 ng/mL, peptide at the higher of the 2 concentrations
[5] = Table 7-3/7-4, myostatin 10 ng/mL, peptide at the higher of the 2 concentrations, read-out: inhibition rate (myostatin inhibition assay)
[6] = Table 7-3/7-4, myostatin 10 ng/mL, peptide at the lower of the 2 concentrations, read-out: inhibition rate (myostatin inhibition assay)

| Structure (SMILES) | inhibition at 0.03 µM (GDF-11) [%] | inhibition at 0.1 µM (GDF-11) [%] | inhibition at 0.03 µM (Myostatin; [1]) [%] | inhibition at 0.1 µM (Myostatin; [2]) [%] | inhibition (GDF-11; [3]) [%] | inhibition (GDF-11; [4]) [%] | inhibition at 0.1 µM (Myostatin; [5]) [%] | inhibition at 0.03 µM (Myostatin; [6]) [%] |
| --- | --- | --- | --- | --- | --- | --- | --- | --- |
| CCCCCCC[C@@H]1NC(=O)[C@H](Cc2ccccc2)N(C)C(=O)[C@H](CCCNC(=N)N)NC(=O)[C@H](Cc2ccc(C(=O)O)cc2)NC(=O)[C@H](Cc2cccc(OCC(=O)O)c2)NC(=O)CN(C)C(=O)[C@H]([C@@H](C)CC)NC(=O)[C@H](Cc2ccccc2)N(C)C(=O)[C@H](Cc2cccc(-c3ccccc3)c2)NC(=O)[C@H](Cc2c[nH]c3ccccc23)NC(=O)[C@H](C)NC(=O)[C@H](C)NC(=O)CSC[C@H](C(=O)N2CCN(CC(=O)O)CC2)NC(=O)[C@H](Cc2ccccc2)N(C)C(=O)[C@H](C)N(C)C1=O [Myostatin_99_v301] ({CH2CO}-AAW[Phe(3-Ph)][NMeF]I[Sar][Phe(3-OCH2COOH)][Phe(4-COOH)]R[NMeF][X1][NMeA][NMeF][dC]-{Piperazinyl(4-CH2COOH)}; thioether N-15) | 0 | 0 | 93 | 99 | – | – | – | – |
| CCCCCCC[C@@H]1NC(=O)[C@H](Cc2ccccc2)N(C)C(=O)[C@H](CCCNC(=N)N)NC(=O)[C@H](Cc2ccc(C(=O)O)cc2)NC(=O)[C@H](Cc2cccc(OCC(=O)O)c2)NC(=O)CN(C)C(=O)[C@H]([C@@H](C)CC)NC(=O)[C@H](Cc2ccc(OCCCN)cc2)N(C)C(=O)[C@H](Cc2ccc(O)cc2)NC(=O)[C@H](Cc2c[nH]c3ccccc23)NC(=O)[C@H](C)NC(=O)[C@H](C)NC(=O)CSC[C@H](C(=O)N2CCN(CC(=O)O)CC2)NC(=O)[C@H](Cc2ccccc2)N(C)C(=O)[C@H](C)N(C)C1=O [Myostatin_99_v302] ({CH2CO}-AAWY[NMeY](Propyl(3-NH2))I[Sar][Phe(3-OCH2COOH)][Phe(4-COOH)]R[NMeF][X1][NMeA][NMeF][dC]-{Piperazinyl(4-CH2COOH)}; thioether N-15) | 0 | 0 | 99 | 100 | – | – | – | – |
| CCCCCCC[C@@H]1NC(=O)[C@H](Cc2ccccc2)N(C)C(=O)[C@H](CCCNC(=N)N)NC(=O)[C@H](Cc2ccc(C(=O)O)cc2)NC(=O)[C@H](Cc2cccc(OCC(=O)O)c2)NC(=O)CN(C)C(=O)[C@H]([C@@H](C)CC)NC(=O)[C@H](CC2CCN(C(C)=O)CC2)N(C)C(=O)[C@H](Cc2ccc(O)cc2)NC(=O)[C@H](Cc2c[nH]c3ccccc23)NC(=O)[C@H](C)NC(=O)[C@H](C)NC(=O)CSC[C@H](C(=O)N2CCN(CC(=O)O)CC2)NC(=O)[C@H](Cc2ccccc2)N(C)C(=O)[C@H](C)N(C)C1=O [Myostatin_99_v303] ({CH2CO}-AAWY[X2]I[Sar][Phe(3-OCH2COOH)][Phe(4-COOH)]R[NMeF][X1][NMeA][NMeF][dC]-{Piperazinyl(4-CH2COOH)}; thioether N-15) | 39 | 67 | 100 | 100 | – | – | – | – |
| CCCCCCC[C@@H]1NC(=O)[C@H](Cc2ccccc2)N(C)C(=O)[C@H](CCCNC(=N)N)NC(=O)[C@H](Cc2ccc(C(=O)O)cc2)NC(=O)[C@H](Cc2cccc(OCC(=O)O)c2)NC(=O)CN(C)C(=O)[C@H]([C@@H](C)CC)NC(=O)[C@H](Cc2cccc(-c3ccccc3)c2)N(C)C(=O)[C@H](Cc2ccc(O)cc2)NC(=O)[C@H](Cc2c[nH]c3ccccc23)NC(=O)[C@H](C)NC(=O)[C@H](C)NC(=O)CSC[C@H](C(=O)N2CCN(CC(=O)O)CC2)NC(=O)[C@H](Cc2ccccc2)N(C)C(=O)[C@H](C)N(C)C1=O [Myostatin_99_v304] ({CH2CO}-AAWY[NMePhe(3-Ph)]I[Sar][Phe(3-OCH2COOH)][Phe(4-COOH)]R[NMeF][X1][NMeA][NMeF][dC]-{Piperazinyl(4-CH2COOH)}; thioether N-15) | 0 | 0 | 74 | 88 | – | – | – | – |
| CCCCCCC[C@@H]1NC(=O)[C@H](Cc2ccccc2)N(C)C(=O)[C@H](CCCNC(=N)N)NC(=O)[C@H](Cc2ccc(C(=O)O)cc2)NC(=O)[C@H](Cc2cccc(OCC(=O)O)c2)NC(=O)CN(C)C(=O)[C@H]([C@@H](C)CC)NC(=O)[C@H](Cc2ccc3ccccc3c2)N(C)C(=O)[C@H](Cc2ccc(O)cc2)NC(=O)[C@H](Cc2c[nH]c3ccccc23)NC(=O)[C@H](C)NC(=O)[C@H](C)NC(=O)CSC[C@H](C(=O)N2CCN(CC(=O)O)CC2)NC(=O)[C@H](Cc2ccccc2)N(C)C(=O)[C@H](C)N(C)C1=O [Myostatin_99_v306] ({CH2CO}-AAWY[NMe2Nal]I[Sar][Phe(3-OCH2COOH)][Phe(4-COOH)]R[NMeF][X1][NMeA][NMeF][dC]-{Piperazinyl(4-CH2COOH)}; thioether N-15) | – | – | – | – | 0 | 0 | 94 | 80 |
| CCCCCCC[C@@H]1NC(=O)[C@H](Cc2ccccc2)N(C)C(=O)[C@H](CCCNC(=N)N)NC(=O)[C@H](Cc2ccc(C(=O)O)cc2)NC(=O)[C@H](Cc2cccc(OCC(=O)O)c2)NC(=O)CN(C)C(=O)[C@H]([C@@H](C)CC)NC(=O)[C@H](Cc2ccc(OC)cc2)N(C)C(=O)[C@H](Cc2ccc(O)cc2)NC(=O)[C@H](Cc2c[nH]c3ccccc23)NC(=O)[C@H](C)NC(=O)[C@H](C)NC(=O)CSC[C@H](C(=O)N2CCN(CC(=O)O)CC2)NC(=O)[C@H](Cc2ccccc2)N(C)C(=O)[C@H](C)N(C)C1=O [Myostatin_99_v307] ({CH2CO}-AAWY[NMeY](Me)I[Sar][Phe(3-OCH2COOH)][Phe(4-COOH)]R[NMeF][X1][NMeA][NMeF][dC]-{Piperazinyl(4-CH2COOH)}; thioether N-15) | – | – | – | – | 0 | 12 | 98 | 89 |
| CCCCCCC[C@@H]1NC(=O)[C@H](Cc2ccccc2)N(C)C(=O)[C@H](CCCNC(=N)N)NC(=O)[C@H](Cc2ccc(C(=O)O)cc2)NC(=O)[C@H](Cc2cccc(OCC(=O)O)c2)NC(=O)CN(C)C(=O)[C@H]([C@@H](C)CC)NC(=O)[C@H](Cc2ccc(Cl)cc2)N(C)C(=O)[C@H](Cc2ccc(O)cc2)NC(=O)[C@H](Cc2c[nH]c3ccccc23)NC(=O)[C@H](C)NC(=O)[C@H](C)NC(=O)CSC[C@H](C(=O)N2CCN(CC(=O)O)CC2)NC(=O)[C@H](Cc2ccccc2)N(C)C(=O)[C@H](C)N(C)C1=O [Myostatin_99_v308] ({CH2CO}-AAWY[NMePhe(4-Cl)]I[Sar][Phe(3-OCH2COOH)][Phe(4-COOH)]R[NMeF][X1][NMeA][NMeF][dC]-{Piperazinyl(4-CH2COOH)}; thioether N-15) | – | – | – | – | 0 | 3 | 97 | 87 |
| CCCCCCC[C@@H]1NC(=O)[C@H](Cc2ccccc2)N(C)C(=O)[C@H](CCCNC(=N)N)NC(=O)[C@H](Cc2ccc(C(=O)O)cc2)NC(=O)[C@H](Cc2cccc(OCC(=O)O)c2)NC(=O)CN(C)C(=O)[C@H]([C@@H](C)CC)NC(=O)[C@H](Cc2ccccc2)N(C)C(=O)[C@H](Cc2ccc(O)cc2)NC(=O)[C@H](Cc2c[nH]c3ccccc23)NC(=O)[C@H](C)NC(=O)[C@H](C)NC(=O)CSC[C@H](C(=O)N2CCN(CC(=O)O)CC2)NC(=O)[C@H](Cc2ccccc2)N(C)C(=O)[C@H](CCC(=O)O)N(C)C1=O [Myostatin_99_v311] ({CH2CO}-AAWY[NMeF]I[Sar][Phe(3-OCH2COOH)][Phe(4-COOH)]R[NMeF][X1][NMeE][NMeF][dC]-{Piperazinyl(4-CH2COOH)}; thioether N-15) | – | – | – | – | 0 | 5 | 100 | 99 |
| CCCCCCC[C@@H]1NC(=O)[C@H](Cc2ccccc2)N(C)C(=O)[C@H](CCCNC(=N)N)NC(=O)[C@H](Cc2ccc(C(=O)O)cc2)NC(=O)[C@H](Cc2cccc(OCC(=O)O)c2)NC(=O)CN(C)C(=O)[C@H]([C@@H](C)CC)NC(=O)[C@H](Cc2ccccc2)N(C)C(=O)[C@H](Cc2ccc(O)cc2)NC(=O)[C@H](Cc2cn(Cc3ccccc3)c3ccccc23)NC(=O)[C@H](C)NC(=O)[C@H](C)NC(=O)CSC[C@H](C(=O)N2CCN(CC(=O)O)CC2)NC(=O)[C@H](Cc2ccccc2)N(C)C(=O)[C@H](C)N(C)C1=O [Myostatin_99_v312] ({CH2CO}-AA[X10]Y[NMeF]I[Sar][Phe(3-OCH2COOH)][Phe(4-COOH)]R[NMeF][X1][NMeA][NMeF][dC]-{Piperazinyl(4-CH2COOH)}; thioether N-15) | – | – | – | – | 0 | 6 | 100 | 98 |
